These results are taken from patent US10669238B2, “Irreversible bruton's tyrosine kinase inhibitor” (HEFEI INSTITUTES OF PHYSICAL SCIENCE, CHINESE ACADEMY OF …, priority 2016, dated 2020).

Assay [1] relates to acute myelocytic leukemia cell strains HL-60. As to the kind of experiment: Cell proliferation (Cell Titer-Glo), HL60. Conditions: Homo sapiens, HL60, 72 hours, read-out: Effects on cell proliferation (GI50). It is filed as cell-based. Here is the method:
(§1) The selectivity of Compound 1 in inhibiting the proliferation of cancer cells was further evaluated by testing the effect of Btk inhibitors on the growth of cancer cells. […]
(§2) In this example different concentrations (0.000508 μM, 0.00152 μM, 0.00457 μM, 0.0137 μM, 0.0411 μM, 0.123 μM, 0.370 μM, 1.11 μM, 3.33 μM, 10 μM) of Compound 1 and Compound 6 were respectively added into the above cells which were then cultured for 72 hours. The number of viable cells was determined via quantitative determination of ATP in living cells by using Cell Titer-Glo® (Promega, the USA) Chemical Luminescent Cell Viability Assay kit.
For orientation: Cellular ATP, detected with luciferase, serves as a proxy for viable cell number.

Assay [2] concerns colon cancer cells HCT116. As to the kind of experiment: Cell proliferation (Cell Titer-Glo), HCT116. The class given is cell-based. Conditions: Homo sapiens, HCT-116; HCT116, 72 hours; read-out: Effects on cell proliferation (GI50). Here is the method: as §1, §2
Assay [3] deals with acute myeloid leukemia cell lines MOLM14. As to the kind of experiment: Cell proliferation (Cell Titer-Glo), MOLM14. Conditions: Homo sapiens, MOLM-14; MOLM14, 72 hours; read-out: Effects on cell proliferation (GI50). It is filed as cell-based. Here is the method:
as §1, §2

A further assay deals with B-lymphoma cell Ramos. The experiment in a line: Cell proliferation (Cell Titer-Glo), Ramos. The conditions noted are these: Homo sapiens, Romas, 72 hours, read-out: Effects on cell proliferation (GI50). It is filed as cell-based. Here is the method: as §1, §2
Another assay addresses BTK WT (Homo sapiens, UniProt Q06187). The experiment in a line: Btk cell-free kinase assay, BTK WT protein. It is filed as biochemical. The conditions noted are these: compound 30 mins at room temperature, then 100 μM ATP 20 min at 37° C. The source says:
(§3) The BTK wild-type plasmid and the BTK mutant plasmid (C481S) were respectively transfected into SF9 cells (purchased from invitrogen), and after three generations of virus amplification, the P3-generation virus was used to transfect SF9 cells which were collected after 72-hour culture to obtain protein BTK WT and protein BTK C481S, which were then purified.

For assay [4], the target named is T1, TEL-JAK3-BaF3 cells (stably expressing TEL-JAK3 activated kinase) (Homo sapiens, UniProt P52333).
T1 construct: expressed in transfected cells; host or cells: mouse BaF3 cells, retroviral MSCV-Puro; the other entry of the earlier key: ETV6 (P41212, Transcription factor ETV6)
The experiment in a line: Cell proliferation (Cell Titer-Glo), BaF3-tel-JAK3. It is filed as cell-based. The conditions noted are these: BaF3-tel-JAK3 (mouse BaF3 cells), 72 hours; read-out: Effects on cell proliferation (GI50). Here is the method:
as §1, §2

For assay [5], the target named is T2, TEL-BMX-BaF3 cells (stably expressing TEL-BMX activated kinase) (Homo sapiens, UniProt P51813).
T2 construct: expressed in transfected cells; host or cells: mouse BaF3 cells, retroviral MSCV-Puro; the other entry of the earlier key: ETV6 (P41212, Transcription factor ETV6)
As to the kind of experiment: Cell proliferation (Cell Titer-Glo), BaF3-tel-BMX. The class given is cell-based. Conditions: BaF3-tel-BMX (mouse BaF3 cells), 72 hours; read-out: Effects on cell proliferation (GI50). Here is the method:
as §1, §2

The test system of assay [6] is acute myeloid leukemia cell lines MV4-11. As to the kind of experiment: Cell proliferation (Cell Titer-Glo), MV4-11. The class given is cell-based. Conditions: Homo sapiens; MV4-11, 72 hours; read-out: Effects on cell proliferation (GI50). Here is the method: as §1, §2
Assay [7] deals with bone marrow plasma cell tumor cells AMO-1. As to the kind of experiment: Cell proliferation (Cell Titer-Glo), AMO-1. The class given is cell-based. Conditions: Homo sapiens, AMO1; AMO-1, 72 hours; read-out: Effects on cell proliferation (GI50). Here is the method:
as §1, §2

Assay [8] has as its system acute myeloid leukemia cell lines MOLM16. As to the kind of experiment: Cell proliferation (Cell Titer-Glo), MOLM-16. It is filed as cell-based. Conditions: MOLM-16, 72 hours, read-out: Effects on cell proliferation (GI50). Here is the method: as §1, §2
The test system of assay [9] is human leukocyte leukemia cells HEL. The experiment in a line: Cell proliferation (Cell Titer-Glo), HEL. It is filed as cell-based. Conditions: 72 hours, read-out: Effects on cell proliferation (GI50). Here is the method: as §1, §2
A further assay has as its target T3, BTK C481S (Homo sapiens, UniProt Q06187, C481S).
T3 construct: made in house; host or cells: SF9 insect cells
As to the kind of experiment: Btk cell-free kinase assay, BTK C481S mutant protein. The class given is biochemical. Conditions: compound 30 mins at room temperature, then 100 μM ATP 20 min at 37° C.
Source text: as §3

For another assay, the system named is leukemic cells K562. As to the kind of experiment: Cell proliferation (Cell Titer-Glo), K562. It is filed as cell-based. The conditions noted are these: Homo sapiens; K562, 72 hours; read-out: Effects on cell proliferation (GI50). Here is the method: as §1, §2
Assay [10] deals with T4, TEL-EGFR-BaF3 (stably expressing TEL-EGFR activated kinase) (Homo sapiens, UniProt P00533).
T4 construct: expressed in transfected cells; host or cells: mouse BaF3 cells, retroviral MSCV-Puro; the other entry of the earlier key: ETV6 (P41212, Transcription factor ETV6)
The experiment in a line: Cell proliferation (Cell Titer-Glo), BaF3-tel-EGFR. Conditions: BaF3-tel-EGFR (mouse BaF3 cells), 72 hours; read-out: Effects on cell proliferation (GI50). The class given is cell-based. Here is the method: as §1, §2

Assay [11] has as its system acute myeloid leukemia cell lines M-07e. As to the kind of experiment: Cell proliferation (Cell Titer-Glo), M-07e. It is filed as cell-based. Conditions: 72 hours, read-out: Effects on cell proliferation (GI50). Here is the method:
as §1, §2

Assay [12] relates to MDS-RAEB cell lines SKM-1. The experiment in a line: Cell proliferation (Cell Titer-Glo), SKM-1. It is filed as cell-based. Conditions: Homo sapiens; SKM-1, 72 hours; read-out: Effects on cell proliferation (GI50). Here is the method: as §1, §2

T1 sequence (P52333 822-1111 limits assumed): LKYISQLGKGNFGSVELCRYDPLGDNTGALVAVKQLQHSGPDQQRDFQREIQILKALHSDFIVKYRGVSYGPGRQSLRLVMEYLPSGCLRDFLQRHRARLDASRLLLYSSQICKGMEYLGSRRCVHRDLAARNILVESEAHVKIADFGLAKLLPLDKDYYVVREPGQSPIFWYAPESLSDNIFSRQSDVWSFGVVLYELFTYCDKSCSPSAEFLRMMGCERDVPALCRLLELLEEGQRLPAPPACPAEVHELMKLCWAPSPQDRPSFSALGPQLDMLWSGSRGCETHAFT
T3 sequence (Q06187 whole entry C481S): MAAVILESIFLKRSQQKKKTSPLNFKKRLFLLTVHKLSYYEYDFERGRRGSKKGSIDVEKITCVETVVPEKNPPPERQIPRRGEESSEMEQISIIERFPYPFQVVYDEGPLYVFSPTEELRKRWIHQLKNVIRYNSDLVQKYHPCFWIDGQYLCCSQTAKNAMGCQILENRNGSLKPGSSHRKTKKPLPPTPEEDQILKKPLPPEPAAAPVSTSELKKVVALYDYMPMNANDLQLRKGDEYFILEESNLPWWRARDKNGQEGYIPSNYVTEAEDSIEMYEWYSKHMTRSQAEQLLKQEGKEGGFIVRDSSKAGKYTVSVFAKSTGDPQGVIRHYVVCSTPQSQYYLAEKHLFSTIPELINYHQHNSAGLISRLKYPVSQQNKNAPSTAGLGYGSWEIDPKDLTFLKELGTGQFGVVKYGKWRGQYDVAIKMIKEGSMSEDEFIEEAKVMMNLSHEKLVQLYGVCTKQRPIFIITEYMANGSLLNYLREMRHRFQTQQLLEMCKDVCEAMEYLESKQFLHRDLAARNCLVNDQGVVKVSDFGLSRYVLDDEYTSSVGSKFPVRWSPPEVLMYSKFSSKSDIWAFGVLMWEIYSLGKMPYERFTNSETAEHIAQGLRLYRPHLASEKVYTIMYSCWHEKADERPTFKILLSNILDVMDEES
T4 sequence (P00533 712-979 limits assumed): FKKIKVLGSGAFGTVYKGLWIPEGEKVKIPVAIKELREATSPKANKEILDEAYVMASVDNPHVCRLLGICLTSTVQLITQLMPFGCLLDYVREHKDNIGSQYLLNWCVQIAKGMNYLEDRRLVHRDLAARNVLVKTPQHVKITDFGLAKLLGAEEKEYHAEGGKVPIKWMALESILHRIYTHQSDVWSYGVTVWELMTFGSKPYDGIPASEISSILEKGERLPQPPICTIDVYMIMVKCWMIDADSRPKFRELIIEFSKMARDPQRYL
Sequence of BTK WT (Q06187 whole entry): as the sequence (Q06187 whole entry C481S) above, with S481C counted along it
T2 sequence (P51813 417-675 limits assumed): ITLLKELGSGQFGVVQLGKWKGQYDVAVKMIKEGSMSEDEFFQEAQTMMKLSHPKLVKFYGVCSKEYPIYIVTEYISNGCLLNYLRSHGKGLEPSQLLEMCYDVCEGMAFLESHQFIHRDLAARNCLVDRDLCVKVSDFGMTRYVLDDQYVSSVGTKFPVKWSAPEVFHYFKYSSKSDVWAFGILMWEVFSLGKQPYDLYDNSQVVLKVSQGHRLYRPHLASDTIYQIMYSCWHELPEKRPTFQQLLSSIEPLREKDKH

`CCC(=O)Nc1cc(Nc2cc(-c3cccc(NC(=O)c4ccc(C(C)(C)C)cc4)c3C)cn(C)c2=O)ccc1C(=O)N1CCOCC1` [Compound 6, N-(3-(5-((3-propanamide-4-(morpholin-4-carbonyl)phenyl)amino)-1-methyl-6-oxo-1,6-dihydropyridin-3-yl)-2-methylphenyl)-4-(tert-butyl)benzamide]: the GI50 in assay [1] is more than 10 µM; in assay [2], more than 10 µM; in assay [3], more than 10 µM; in the assay on B-lymphoma cell Ramos it was 4.6 µM; in assay [4], 4.6 µM; in [5], 4.1 µM. Moreover, the GI50 is 4.8 µM in assay [6]; 8 µM in assay [7]; more than 10 µM in [8]; more than 10 µM in [9]; more than 10 µM in the assay on leukemic cells K562; 7.6 µM in assay [10]. Also, the GI50 in assay [11] and in assay [12] was more than 10 µM each time. For the same compound, the “inhibitory effects against BTK WT” value against BTK WT is on record as “no inhibitory effects”. The “inhibitory effects against BTK C481S” value on BTK C481S is listed as “no inhibitory effects”.
With `C=CC(=O)Nc1cc(Nc2cc(-c3cccc(NC(=O)c4ccc(C(C)(C)C)cc4)c3C)cn(C)c2=O)ccc1C(=O)N1CCOCC1` [Compound 1, N-(3-(5-((3-acrylamide-4-(morpholin-4-carbonyl)phenyl)amino)-1-methyl-6-oxo-1,6-dihydropyridin-3-yl)-2-methylphenyl)-4-(tert-butyl)benzamide], the GI50 in assay [1] was 5.5 µM; in assay [2], more than 10 µM; in assay [3], 6.4 µM; in the assay on B-lymphoma cell Ramos it was 3.5 µM; in assay [4], 3.2 µM; in [5], 0.38 µM. Moreover, the GI50 in assay [6] is 2.1 µM; in assay [7], 3.4 µM; in assay [8], 3.5 µM; in [9], 5.3 µM; in the assay on leukemic cells K562, 4.2 µM; in assay [10], 5.3 µM. Further, the GI50 is 7.3 µM in assay [11] and 7.1 µM in assay [12]. For the same compound, the values for the 50% effective concentration (EC50) at BTK WT (read-out: EC50 against BTK WT protein) and on BTK C481S (read-out: EC50 against BTK C481S) were 0.0047 µM and 0.185 µM, respectively.
